{
  "source": "patent US20230145406A1",
  "about": "“DIVALENT METAL-CONTAINING BIOMATERIALS AND METHODS OF USE” (University of Oregon, priority 2021, published 2023)",
  "assay": "Precipitation in filtered concentrated cupric dilactate solution",
  "format": "physicochemical",
  "conditions": "cupric dilactate in water, sonicated, overnight 37° C., 0.45 μm filtered; over 3 weeks",
  "experimental": "Increased concentrations of cupric dilactate were prepared for use in polymers to achieve higher loading. Excess of cupric dilactate in water (5 g in 10 ml) was prepared and sonicated for 30-120 minutes (15 minutes each x 2-8 times with 10 minutes break between each sonication session) and left overnight at 37° C. The solution obtained was cooled to room temperature and the green liquid containing cupric dilactate was separated from the undissolved cupric dilactate by aspiration and filtering through 0.45 μm syringe filter. […] This solution can be used for loading plugs, for example as described in Examples 1-3.",
  "data": [
    {"smiles": "CC(O)C(=O)[O-].CC(O)C(=O)[O-].[Cu+2]", "note": "(stereo not shown) [cupric dilactate]", "values": [
      {"measurement": "precipitate in the filtrate", "value": "No precipitate was observed"}
    ]}
  ]
}
